Data as given in PubChem BioAssay (NCI).
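Step 1: Grow cells in 96-well plates. Step 2: Expose to compound for 48 hours at 5 concentrations. Step 3: Interpolate endpoints linearly; if unreached, use highest concentration. Here, GI50 denotes the concentration required for 50% inhibition of growth. Definition used: TGI = concentration required for complete inhibition of growth.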

Legend:
Test in all cases: inhibition of tumour cell growth, NCI panel, 48 h
HOP-62 NSCLC = tested on: HOP-62 NSCLC
786-0 renal = tested on: 786-0 renal
BT-549 breast = tested on: BT-549 breast
HCT-116 colon = tested on: HCT-116 colon
TK-10 renal = tested on: TK-10 renal
RPMI-8226 leukemia = tested on: RPMI-8226 leukemia
MALME-3M melanoma = tested on: MALME-3M melanoma
HL-60(TB) leukemia = tested on: HL-60(TB) leukemia
RXF 393 renal = tested on: RXF 393 renal
OVCAR-5 ovarian = tested on: OVCAR-5 ovarian
ACHN renal = tested on: ACHN renal
SR leukemia = tested on: SR leukemia
U251 CNS = tested on: U251 CNS
NCI-H522 lung = tested on: NCI-H522 lung
T-47D breast = tested on: T-47D breast
SNB-19 CNS = tested on: SNB-19 CNS
K-562 leukemia = tested on: K-562 leukemia
HCC-2998 colon = tested on: HCC-2998 colon
SF-539 CNS = tested on: SF-539 CNS
DU-145 prostate = tested on: DU-145 prostate
SF-295 CNS = tested on: SF-295 CNS
SN12C renal = tested on: SN12C renal
OVCAR-4 ovarian = tested on: OVCAR-4 ovarian
HT29 colon = tested on: HT29 colon
HCT-15 colon = tested on: HCT-15 colon
MCF7 breast = tested on: MCF7 breast
PC-3 prostate = tested on: PC-3 prostate
CAKI-1 renal = tested on: CAKI-1 renal
CCRF-CEM leukemia = tested on: CCRF-CEM leukemia
NCI-H226 lung = tested on: NCI-H226 lung
EKVX NSCLC = tested on: EKVX NSCLC
SK-MEL-2 melanoma = tested on: SK-MEL-2 melanoma
UACC-257 melanoma = tested on: UACC-257 melanoma
NCI-H460 lung = tested on: NCI-H460 lung
SW-620 colon = tested on: SW-620 colon
OVCAR-3 ovarian = tested on: OVCAR-3 ovarian
NCI-H23 lung = tested on: NCI-H23 lung
MOLT-4 leukemia = tested on: MOLT-4 leukemia
A549 NSCLC = tested on: A549 NSCLC
SK-OV-3 ovarian = tested on: SK-OV-3 ovarian
HOP-92 NSCLC = tested on: HOP-92 NSCLC
M14 melanoma = tested on: M14 melanoma
OVCAR-8 ovarian = tested on: OVCAR-8 ovarian
HS 578T breast = tested on: HS 578T breast
COLO 205 colon = tested on: COLO 205 colon
IGROV1 ovarian = tested on: IGROV1 ovarian
NCI/ADR-RES ovarian = tested on: NCI/ADR-RES ovarian
MDA-MB-231 breast = tested on: MDA-MB-231 breast
SK-MEL-5 melanoma = tested on: SK-MEL-5 melanoma
KM12 colon = tested on: KM12 colon
SK-MEL-28 melanoma = tested on: SK-MEL-28 melanoma
LOX IMVI melanoma = tested on: LOX IMVI melanoma
SF-268 CNS = tested on: SF-268 CNS
UACC-62 melanoma = tested on: UACC-62 melanoma
A498 renal = tested on: A498 renal
SNB-75 CNS = tested on: SNB-75 CNS
MDA-MB-435 = tested on: MDA-MB-435

O=C1C(Nc2ccccn2)=C(I)C(=O)c2ncccc21
GI50 (HOP-62 NSCLC): 1120 nM | TGI (HOP-62 NSCLC): 2430 nM | GI50 (786-0 renal): 1900 nM | TGI (786-0 renal): 4.68 µM | GI50 (BT-549 breast): 1540 nM | TGI (BT-549 breast): 3.14 µM | GI50 (HCT-116 colon): 372 nM | TGI (HCT-116 colon): 1610 nM | GI50 (TK-10 renal): 1870 nM | TGI (TK-10 renal): 3.65 µM | GI50 (RPMI-8226 leukemia): 1190 nM | TGI (RPMI-8226 leukemia): 3.73 µM | GI50 (MALME-3M melanoma): 1270 nM | TGI (MALME-3M melanoma): 2540 nM | GI50 (HL-60(TB) leukemia): 1630 nM | TGI (HL-60(TB) leukemia): 3.77 µM | GI50 (RXF 393 renal): 1250 nM | TGI (RXF 393 renal): 2750 nM | GI50 (OVCAR-5 ovarian): 1710 nM | TGI (OVCAR-5 ovarian): 3.25 µM | GI50 (ACHN renal): 403 nM | TGI (ACHN renal): 4.49 µM | GI50 (SR leukemia): 274 nM | TGI (SR leukemia): 10 µM | GI50 (U251 CNS): 591 nM | TGI (U251 CNS): 2070 nM | GI50 (NCI-H522 lung): 725 nM | TGI (NCI-H522 lung): 2500 nM | GI50 (T-47D breast): 1360 nM | TGI (T-47D breast): 3.82 µM | GI50 (SNB-19 CNS): 1040 nM | TGI (SNB-19 CNS): 2240 nM | GI50 (K-562 leukemia): 367 nM | TGI (K-562 leukemia): 4.29 µM | GI50 (HCC-2998 colon): 1530 nM | TGI (HCC-2998 colon): 2980 nM | GI50 (SF-539 CNS): 1370 nM | TGI (SF-539 CNS): 2690 nM | GI50 (DU-145 prostate): 367 nM | TGI (DU-145 prostate): 1420 nM | GI50 (SF-295 CNS): 1190 nM | TGI (SF-295 CNS): 2560 nM | GI50 (SN12C renal): 889 nM | TGI (SN12C renal): 2560 nM | GI50 (OVCAR-4 ovarian): 1070 nM | TGI (OVCAR-4 ovarian): 2270 nM | GI50 (HT29 colon): 2750 nM | TGI (HT29 colon): 8.48 µM | GI50 (HCT-15 colon): 226 nM | TGI (HCT-15 colon): 1390 nM | GI50 (MCF7 breast): 396 nM | TGI (MCF7 breast): 2070 nM | GI50 (PC-3 prostate): 1750 nM | TGI (PC-3 prostate): 5.12 µM | GI50 (CAKI-1 renal): 826 nM | TGI (CAKI-1 renal): 2120 nM | GI50 (CCRF-CEM leukemia): 552 nM | TGI (CCRF-CEM leukemia): 5.19 µM | GI50 (NCI-H226 lung): 1430 nM | TGI (NCI-H226 lung): 3.08 µM | GI50 (EKVX NSCLC): 1620 nM | TGI (EKVX NSCLC): 3.3 µM | GI50 (SK-MEL-2 melanoma): 1760 nM | TGI (SK-MEL-2 melanoma): 3.51 µM | GI50 (UACC-257 melanoma): 1590 nM | TGI (UACC-257 melanoma): 3.49 µM | GI50 (NCI-H460 lung): 295 nM | TGI (NCI-H460 lung): 1100 nM | GI50 (SW-620 colon): 330 nM | TGI (SW-620 colon): 1630 nM | GI50 (OVCAR-3 ovarian): 378 nM | TGI (OVCAR-3 ovarian): 1600 nM | GI50 (NCI-H23 lung): 584 nM | TGI (NCI-H23 lung): 2610 nM | GI50 (MOLT-4 leukemia): 702 nM | TGI (MOLT-4 leukemia): 4.66 µM | GI50 (A549 NSCLC): 1280 nM | TGI (A549 NSCLC): 2880 nM | GI50 (SK-OV-3 ovarian): 1330 nM | TGI (SK-OV-3 ovarian): 2640 nM | GI50 (HOP-92 NSCLC): 1650 nM | TGI (HOP-92 NSCLC): 4.36 µM | GI50 (M14 melanoma): 1180 nM | TGI (M14 melanoma): 2600 nM | GI50 (OVCAR-8 ovarian): 1290 nM | TGI (OVCAR-8 ovarian): 5.87 µM | GI50 (HS 578T breast): 1200 nM | TGI (HS 578T breast): 4.9 µM | GI50 (COLO 205 colon): 1900 nM | TGI (COLO 205 colon): 3.68 µM | GI50 (IGROV1 ovarian): 741 nM | TGI (IGROV1 ovarian): 2250 nM | GI50 (NCI/ADR-RES ovarian): 1250 nM | TGI (NCI/ADR-RES ovarian): 4.6 µM | GI50 (MDA-MB-231 breast): 1530 nM | TGI (MDA-MB-231 breast): 4.86 µM | GI50 (SK-MEL-5 melanoma): 1110 nM | TGI (SK-MEL-5 melanoma): 2310 nM | GI50 (KM12 colon): 1650 nM | TGI (KM12 colon): 3.42 µM | GI50 (SK-MEL-28 melanoma): 1680 nM | TGI (SK-MEL-28 melanoma): 3.18 µM | GI50 (LOX IMVI melanoma): 305 nM | TGI (LOX IMVI melanoma): 1660 nM | GI50 (SF-268 CNS): 1340 nM | TGI (SF-268 CNS): 3.8 µM | GI50 (UACC-62 melanoma): 1280 nM | TGI (UACC-62 melanoma): 2670 nM | GI50 (A498 renal): 1260 nM | TGI (A498 renal): 2740 nM | GI50 (SNB-75 CNS): 1010 nM | TGI (SNB-75 CNS): 2230 nM | GI50 (MDA-MB-435): 307 nM | TGI (MDA-MB-435): 947 nM
